Patent US6413734B1, “Method for judging effectiveness of drug having protease inhibitory activity” (Fuji Photo Film Co., LTD, priority 1999, dated 2002)

What was measured:
[1] = tested on: Protease activity of breast cancer specimens; assay: Protease activity measurement of frozen breast cancer slices on gelatin thin membranes containing a matrix metalloproteinase inhibitor; assay type: biochemical, human; conditions: 20 breast cancer specimens; inhibitor contained in gelatin thin membrane; 37° C., 16 hours
Description: A breast cancer specimen, which was extracted by surgical operation and frozen, was sliced at −25° C. into slices having a thickness of 4 μm by using a cryostat, and adhered to a gelatin thin membrane disclosed in WO97/32035. The thickness of gelatin was 7 μm. This gelatin membrane was incubated at 37° C. for 16 hours under 100% of relative humidity, and then dried in air. A solution obtained by mixing a solution in which Ponceau 3R was dissolved at a concentration of 0.8% in 6% trichloroacetic acid aqueous solution and ethanol at a volume ratio of 3:7 was used as a staining solution. The membrane was immersed in the solution at room temperature for 4 minutes for staining. After the membrane was washed with water for 10 minutes, the membrane was then immersed in a Mayer's hematoxylin solution for 2 minutes for nuclear staining, and further washed with water for 10 minutes and dried in air. After the drying, a Cover Aid Film (Sakura Seiki Co., Ltd.) was adhered to the membrane using xylene to enclose the breast cancer slice. The film was held on a plastic mount and observed under an optical microscope. […]
Protease activity of breast cancer specimens, which were extracted by surgical operation and then frozen, was measured in the same manner as Example 1 using gelatin thin membranes containing a matrix metalloproteinase inhibitor (1,10-phenanthroline) disclosed in WO97/32035. […]

[2] = tested on: protease activity of breast cancer specimen; assay: Gelatin digestion by breast cancer specimen collected by paracentesis and suction, pretreated with TIMP-1 and TIMP-2, on gelatin thin membrane; assay type: cell-based, human; conditions: one breast cancer specimen suspended in buffer with 10 μg/ml of TIMP-1 and TIMP-2 together; 37° C., 16 hours
Description: Abreast cancer specimen collected by paracentesis and suction was suspended in a phosphate buffer containing 0.5% of polyvinylpyrrolidone, and adhered to a gelatin thin membrane disclosed in WO97/32035 by using a cytospin apparatus of Shandon Co., Ltd. at a speed of 400 rpm. The membrane thickness of gelatin was 7 μm. The gelatin membrane was incubated at 37° C. for 16 hours under 100% of relative humidity, and then dried in air. A solution in which Ponceau 3R was dissolved at a concentration of 0.8% in 6% trichloroacetic acid aqueous solution was used as a staining solution. The membrane was immersed in the solution at room temperature for 20 seconds for staining. […]
A breast cancer specimen collected by paracentesis and suction was suspended in a phosphate buffer containing 0.5% of polyvinylpyrrolidone and 10 μg/ml of TIMP-1 (tissue inhibitor of metalloproteinase-1) and TIMP-2, and adhered to a gelatin thin membrane disclosed in WO97/32035 by using a cytospin apparatus of Shandon Co., Ltd. at a speed of 400 rpm. […] When traces of digestion were detected in the same manner except for the treatments with TIMP-1 and TIMP-2 as a control, presence of distinct traces of digestion was observed.

Protease activity (traces of digestion on gelatin thin membrane) [1] | Compound | Gelatin digestion on sites where the cancer cells were present [2]
suppressed in all specimens | c1cnc2c(c1)ccc1cccnc12 [1,10-phenanthroline] | 
 | TIMP-1: tissue inhibitor of metalloproteinase-1 | not observed
